Laboratory results published in ChEMBL document CHEMBL3430912, “GSK Tres Cantos Anti-Kinetoplastid Screening (TCAKS) Data”.

Columns and labels:
[1] = target: Sterol 14-alpha demethylase (Trypanosoma cruzi (strain CL Brener), UniProt Q7Z1V1); experiment: GSK_TCAKS: pIC50 CYP51 from Trypanosoma cruzi.; assay type: functional
Leishmania donovani [2] = experiment: GSK_TCAKS: pIC50 Leishmania donovani viability assay using fluorescence intensity. Assay plates (1536-well) were prepared by adding 30nL per well of compound. For single shot assay, the final compound concentration was 5uM. […] Briefly, eGFP LdBOB axenic amastigotes were harvested, fixed and counted in a CASY cell counter (Roche-Applied Science). A final concentration of 1.5 * 10^5 cells per well were prepared in amastigote media containing 500 U/mL penicillin/streptomycin (Invitrogen) and 6uL was dispensed to each experimental well using a Multidrop Combi dispenser (Thermo Scientific). 6uL of assay media was dispensed to control columns used as reference for 100% compound response. Following incubation for 72 h at 37C, 5% CO2, 2 uL of resazurin was added to each well at a final concentration of 0.5 mM in phosphate buffered saline (PBS) with IGEPAL (Sigma-Aldrich), 0.05% (v/v).; assay type: functional, organism-based
Leishmania donovani [3] = experiment: GSK_TCAKS: pIC50 Leishmania donovani Imaging: Amastigotes/Macrophages. Assay plates (384-well) were prepared by adding 250nL of compound to each well. For single shot assay, the final compound concentration was 5 uM. […] Automated image analysis was performed with a script developed on Acapella High Content Imaging and Analysis Software (PerkinElmer). Output: Average number of amastigotes per macrophage cell were reported for each well.; assay type: functional, organism-based, Homo sapiens; details: THP-1
Leishmania donovani [4] = experiment: GSK_TCAKS: pIC50 Leishmania donovani Imaging: THP-1 Host Macrophages. Assay plates (384-well) were prepared by adding 250nL of compound to each well. For single shot assay, the final compound concentration was 5 uM. […] Automated image analysis was performed with a script developed on Acapella High Content Imaging and Analysis Software (PerkinElmer). Output: THP-1 cell count were reported for each well.; assay type: functional, organism-based, Homo sapiens
Trypanosoma cruzi [5] = experiment: (§1) GSK_TCAKS: pIC50 H2C9 Imaging: H9c2 Host Cardiomyocytes. […] Cells were then washed once with PBS before infection. T. cruzi trypomastigotes, collected at days 5 to 8 after infection from LLC-MK2 parasite infected cultures, were allowed to swim out for 4h at 37C from a centrifuged pellet (2,500 rpm/10 min/room temperature). Trypomastigotes were then collected and counted in a CASY Cell Counter. Trypomastigotes, in supplemented DMEM, were added to H9c2 cultures in a multiplicity of infection of 1 and incubated for 18 h. Cells were washed once with PBS before incubation of the infected H9c2 monolayer with trypsin (Life-Technologies) to detach cells from the flask. Cells were counted in a CASY Cell Counter using a 150 um capillary and their density set at 5 * 10^4 cells per mL in supplemented assay DMEM. Infected H9c2 were dispensed into 384-well poly-lysine coated assay plates at 50uL per well using a Multidrop Combi dispenser. After seeding them, the plates were incubated at 37C, 5% CO2 for 72h. Cultures were then fixed and stained by addition of 50 uL of a solution containing 8% formaldehyde and 4 uM DRAQ5 DNA dye (BioStatus, UK) per well. […] Five images were collected per well for reliable statistical analysis. Automated image analysis was performed with a script developed on Acapella High Content Imaging and Analysis Software (PerkinElmer). Output: Number of H9c2 Host Cardiomyocytes nuclei to determine drug-related cytotoxicity.; assay type: functional, organism-based, Rattus norvegicus; details: H9c2, 4 h
Trypanosoma cruzi [6] = experiment: GSK_TCAKS: pIC50 Trypanosoma cruzi viability assay using beta-GAL activity. This assay was run at single shot at 5uM compound concentration per well. The biological reagents consisted of NIH-3T3 host cells and trypomastigotes parasitic cells; both cell types were set to a 3.3 * 10^5 cells/mL dilution in assay DMEM by means of a CASY cell counter device using a 60um capillary. 6 uL of the mixture were dispensed per well (about 1 * 10^3 host-cells and 1 * 10^3 parasites) with a Multidrop Combi dispenser. […] In all wells, the percentage of DMSO never exceeded 0.5%. Plates incubated for four days at 37C, 5% CO2. The substrate used for the assay fluorescence intensity (FLINT) readout was resorufin-beta-D-galactopiranoside (Sigma-Aldrich) at 5uM per well. It was diluted in PBS supplemented with the soft detergent Igepal (Fluka).; assay type: functional, organism-based, Mus musculus; details: Tulahuen, NIH3T3
[7] = tested on: Trypanosoma brucei brucei; experiment: GSK_TCAKS: pIC50 Trypanosoma brucei viability assay using luminiscence. Assay plates (1536-well) were prepared. T. brucei cultures were harvested and counted in a CASY cell counter. A parasite suspension was prepared at a final concentration of 5 * 10^4 cells/mL in complete HMI9 medium and 6uL was dispensed to all wells containing compounds using a Multidrop Combi dispenser. 6uL of HMI9 media with 0.4% DMSO were dispensed to control columns. Plates were incubated for 24 h at 37C, 5% CO2 then tempered for 10 min at room temperature. ATP content was quantified by adding 4 uL of CellTiter-Glo Reagent (Promega) according to the manufacturer's instructions. Luminescence was measured using a ViewLux.; assay type: functional, organism-based; details: Lister 427, CASY
Leishmania donovani [8] = experiment: GSK_TCAKS: pIC50 Leishmania donovani Imaging: Infected Macrophages. Assay plates (384-well) were prepared by adding 250nL of compound to each well. For single shot assay, the final compound concentration was 5 uM. […] Automated image analysis was performed with a script developed on Acapella High Content Imaging and Analysis Software (PerkinElmer). Output: Percent of infected macrophage cells were reported for each well.; assay type: functional, organism-based, Homo sapiens; details: THP-1
[9] = tested on: Trypanosoma brucei brucei; experiment: GSK_TCAKS: pIC50 Trypanosoma brucei viability assay using fluorescence intensity. Assay plates (1536-well) were prepared by dispensing 25nL of compound solution per well using an Echo acoustic dispenser (Labcyte).; assay type: functional, organism-based; details: Lister 427, 2 h
[10] = GSK_TCAKS: pIC50 HepG2 human cell line viability assay using luminiscence. […] Seeding density was checked to ensure that new mono-layers were not more than 50% confluent at the time of harvesting. Cell suspension was added to 500 mL of the same medium at a final density of 1.2 * 10^5 cells/mL. This cell suspension was dispensed (25 uL, 3000 cells per well) into 384-well clear-bottom plates using a Multidrop Combi dispenser. Prior to addition of the cell suspension, the screening compounds (250 nL) were pre-dispensed into the plates with an Echo liquid handler. Plates were incubated for 48 h at 37C, 5% CO2. After incubation, plates equilibrated at room temperature for 30 min before proceeding to develop the luminescent signal. The signal developer, CellTiter-Glo Reagent, was allowed to equilibrate at room temperature for 30 min and added to the plates (25uL per well) using a Multidrop Combi dispenser. Plates were left for 10 min at room temperature for stabilization and then read using a ViewLux.; assay type: toxicity, cell-based
Trypanosoma cruzi [11] = experiment: as §1, with “Trypanosoma cruzi” for “H2C9”, “Infected Cells.” for “H9c2 Host Cardiomyocytes.”, “percentage” for “Number”, “infected cells per well as a second infection marker.” for “H9c2 Host Cardiomyocytes nuclei to determine drug-related cytotoxicity.”; assay type: functional, organism-based, Rattus norvegicus; details: H9c2, 4 h
Trypanosoma cruzi [12] = experiment: as §1, with “Trypanosoma cruzi” for “H2C9”, “Amastigotes/Cell.” for “H9c2 Host Cardiomyocytes.”, “number” for “Number”, “amastigotes per cell as infection level measurement.” for “H9c2 Host Cardiomyocytes nuclei to determine drug-related cytotoxicity.”; assay type: functional, organism-based, Rattus norvegicus; details: H9c2, 4 h

Chain of Sterol 14-alpha demethylase (Q7Z1V1 whole entry): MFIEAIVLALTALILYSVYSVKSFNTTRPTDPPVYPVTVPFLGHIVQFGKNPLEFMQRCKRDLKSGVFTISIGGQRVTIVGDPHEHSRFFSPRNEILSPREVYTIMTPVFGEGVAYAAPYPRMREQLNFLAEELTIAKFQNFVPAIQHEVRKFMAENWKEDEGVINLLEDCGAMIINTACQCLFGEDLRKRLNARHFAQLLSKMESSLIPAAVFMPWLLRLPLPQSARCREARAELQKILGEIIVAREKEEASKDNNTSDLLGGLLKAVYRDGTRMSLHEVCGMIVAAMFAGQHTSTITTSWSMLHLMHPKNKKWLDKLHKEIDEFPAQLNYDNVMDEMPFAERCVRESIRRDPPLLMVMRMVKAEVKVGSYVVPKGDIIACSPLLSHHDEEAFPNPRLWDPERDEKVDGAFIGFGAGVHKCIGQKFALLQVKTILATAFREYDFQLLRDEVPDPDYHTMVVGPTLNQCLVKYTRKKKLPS

Row | Compound | IC50 [1] [µM] | IC50 (Leishmania donovani [2]) [µM] | IC50 (Leishmania donovani [3]) [µM] | IC50 (Leishmania donovani [4]) [µM] | IC50 (Trypanosoma cruzi [5]) [µM] | IC50 (Trypanosoma cruzi [6]) [µM] | IC50 [7] [µM] | IC50 (Leishmania donovani [8]) [µM] | IC50 [9] [µM] | IC50 at 48 h [10] [µM] | IC50 (Trypanosoma cruzi [11]) [µM] | IC50 (Trypanosoma cruzi [12]) [µM]
1 | c1ccc(-c2nc(NCc3ccco3)c3ccccc3n2)nc1 | > 100 | 3.16 | 2.51 | 31.6 | 2 | 6.31 | 6.31 | 2.51 | > 39.8 | > 100 | 3.16 | 3.98
2 | O=C(NCCc1csc(-c2cccc(F)c2)n1)c1ccco1 | > 100 | > 50.1 | > 50.1 | > 50.1 | 10 | 1.58 | 0.631 | > 50.1 | 0.501 | > 100 | 1.58 | 1.26
3 | O=C(Nc1ccc(C(F)(F)F)cc1)NC1(C(=O)NCc2ccco2)CCCCC1 | > 31.6 | 39.8 | > 50.1 | 31.6 | > 50.1 | 7.94 | 1 | > 50.1 | 0.794 | > 100 | > 50.1 | > 50.1
4 | CCN(CC)c1nc(Nc2ccncc2)nc2ccccc12 | > 100 | 0.794 | 2 | 25.1 | 7.94 | 0.126 | 5.01 | 6.31 | 2.51 | 50.1 | 0.0794 | 0.00501
5 | COc1ccc(C2CC(c3ccc(NS(C)(=O)=O)cc3)=NN2C(=O)c2cccs2)cc1OC (configuration not stated) | 12.6 | 12.6 | 3.98 | > 50.1 | > 50.1 | 25.1 | 25.1 | 5.01 | 15.8 | > 100 | 31.6 | 15.8
6 | COc1ccccc1C1CC(c2ccc(NS(C)(=O)=O)cc2)=NN1C(=O)c1cccs1 (configuration not stated) | 25.1 | 3.98 | 2.51 | > 50.1 | > 50.1 | 25.1 | 20 | 3.98 | 15.8 | > 100 | > 50.1 | > 50.1
7 | CCS(=O)(=O)Nc1ccc(C2=NN(C(=O)c3cccs3)C(c3ccccc3OC)C2)cc1 (configuration not stated) | 25.1 | 1.26 | 7.94 | > 50.1 | > 50.1 | 7.94 | 15.8 | 7.94 | 5.01 | > 100 | > 50.1 | > 50.1
8 | CCOc1ccc(CN(C)Cc2nc(Nc3ccc(C)cc3)[nH]c(=N)n2)cc1 | 15.8 | 31.6 | 3.16 | 39.8 | 3.16 | 6.31 | 2 | 3.98 | 2.51 | 31.6 | 5.01 | 5.01
9 | CCC(CC)C(=O)Nc1cccc(C(=O)Nc2nnc(C3CCCCC3)s2)c1 | > 100 | > 50.1 | > 50.1 | > 50.1 | > 50.1 | 10 | 0.631 | > 50.1 | 0.251 | > 100 | 25.1 | 15.8
10 | CCN(CC)c1nc(N(C)C)nc2c1CN(Cc1ccccc1)CC2 | 10 | 7.94 | 3.98 | 39.8 | > 50.1 | 6.31 | 20 | 6.31 | 20 | 63.1 | 20 | 3.98
11 | Cc1[nH]nc(C(F)(F)F)c1NC(=O)CCn1cc(Cl)c([N+](=O)[O-])n1 | > 100 | > 50.1 | > 50.1 | 15.8 | > 50.1 | 7.94 | 0.794 | > 50.1 | 0.501 | > 100 | 25.1 | 6.31
